Results as given in US9834542B2, “LXR modulators” (BRISTOL-MYERS SQUIBB COMPANY, priority 2013, dated 2017).

Molecular target: T1, LXRβ (Homo sapiens, UniProt P55055)
T1 construct: Co-transfection expression plasmids, comprising full-length LXRα (pCMX-h LXRα[…] or LXRβ (pCMX-hLXRβ)); expressed in transfected cells; host or cells: CV-1 African Green Monkey Kidney Cells
T1 sequence (P55055 1-460): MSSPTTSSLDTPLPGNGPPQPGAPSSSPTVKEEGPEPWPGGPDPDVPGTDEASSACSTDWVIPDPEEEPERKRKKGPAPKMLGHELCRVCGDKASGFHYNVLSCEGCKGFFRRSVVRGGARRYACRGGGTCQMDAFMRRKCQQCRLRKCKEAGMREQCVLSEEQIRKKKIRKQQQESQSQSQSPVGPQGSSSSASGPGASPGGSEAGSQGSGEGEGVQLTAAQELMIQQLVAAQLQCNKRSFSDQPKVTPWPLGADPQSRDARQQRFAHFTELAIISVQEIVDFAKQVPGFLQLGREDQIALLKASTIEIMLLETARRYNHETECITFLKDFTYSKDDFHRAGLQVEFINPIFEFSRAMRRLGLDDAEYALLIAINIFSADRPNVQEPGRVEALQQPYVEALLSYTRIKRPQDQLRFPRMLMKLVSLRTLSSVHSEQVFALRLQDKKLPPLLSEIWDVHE
T1 sequence (P19793 1-462 partner): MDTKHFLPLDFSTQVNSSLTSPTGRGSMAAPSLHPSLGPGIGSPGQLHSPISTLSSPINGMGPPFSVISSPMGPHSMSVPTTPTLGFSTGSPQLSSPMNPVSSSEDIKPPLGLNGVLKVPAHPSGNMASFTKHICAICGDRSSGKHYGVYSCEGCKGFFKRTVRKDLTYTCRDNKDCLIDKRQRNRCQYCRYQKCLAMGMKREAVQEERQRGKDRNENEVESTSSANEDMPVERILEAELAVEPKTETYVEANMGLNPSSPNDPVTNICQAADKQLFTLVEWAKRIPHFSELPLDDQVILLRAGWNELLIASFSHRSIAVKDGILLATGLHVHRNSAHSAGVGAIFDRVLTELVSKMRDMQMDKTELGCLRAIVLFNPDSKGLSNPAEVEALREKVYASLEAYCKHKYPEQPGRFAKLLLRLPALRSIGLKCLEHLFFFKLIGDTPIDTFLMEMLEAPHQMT
Assay: Co-transfection assay (LXRE luciferase reporter), LXRβ
Assay type: cell-based
Settings: for EC50: CV-1 cells transfected with pCMX-hLXRβ and LXREx1-Tk-Luciferase, 20 hours incubation; for Emax: LXRβ co-transfection, relative to high control 1-(2,4-difluorobenzyl)-2-oxo-6-(4-phenoxyphenyl)-4-(trifluoromethyl)-1,2-dihydropyridine-3-carbonitrile, read-out: % Efficacy
Procedure, shortened: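 Cell-based LXRβ agonism measured as LXRE-luciferase induction in transiently transfected CV-1 cells after 20 h treatment. Potency is the curve-fit EC50; efficacy is expressed as percent of a full-agonist control's maximal response.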

Cc1nc(-c2cc(-c3cc(F)c(CO)c(S(C)(=O)=O)c3)ccc2-n2cc(C(F)(F)F)nc2C)c(-c2cc(F)cc(Cl)c2)o1 [Example 450, (3′-(5-(3-chloro-5-fluorophenyl)-2-methyloxazol-4-yl)-3-fluoro-4′-(2-methyl-4-(trifluoromethyl)-1H-imidazol-1-yl)-5-(methylsulfonyl)biphenyl-4-yl)methanol] showed an EC50 of 45 nM and an Emax of 49%.
Cc1nc(C(F)(F)F)cn1-c1ccc(-c2cccc(C(C)(C)C(N)=O)c2)cc1-n1nncc1Cc1ccc(Cl)cc1 [Example 119, 2-(3′-{5-[(4-chlorophenyl)methyl]-1H-1,2,3-triazol-1-yl}-4′-[2-methyl-4-(trifluoromethyl)-1H-imidazol-1-yl]biphenyl-3-yl)-2-methylpropanamide] showed an EC50 of 820 nM and an Emax of 85%.
Cc1nc(C(F)(F)F)cn1-c1ccc(-c2cc(F)c(CCO)c(S(C)(=O)=O)c2)cc1-n1nncc1-c1ccc(OC(F)(F)F)cc1 [Example 237, 2-(3-fluoro-4′-(2-methyl-4-(trifluoromethyl)-1H-imidazol-1-yl)-5-(methylsulfonyl)-3′-(5-(4-(trifluoromethoxy)phenyl)-1H-1,2,3-triazol-1-yl)-[1,1′-biphenyl]-4-yl)ethanol] was tested, and the EC50 was 192 nM and the Emax was 98%.
Cc1nc(C(F)(F)F)cn1-c1ccc(-c2cccc(S(C)(=O)=O)c2)cc1-n1nncc1-c1ccc(C(F)(F)F)nc1 [Example 80, 5-(1-{3′-(methylsulfonyl)-4-[2-methyl-4-(trifluoromethyl)-1H-imidazol-1-yl]biphenyl-3-yl}-1H-1,2,3-triazol-5-yl)-2-(trifluoromethyl)pyridine] showed an EC50 of 2690 nM and an Emax of 81%.
Work on Cc1nc(-c2cc(-c3cccc(S(C)(=O)=O)c3)ccc2-n2cc(C(F)(F)F)nc2C)c(-c2ccc(OC(F)(F)F)cc2)o1 [Example 366, 2-methyl-4-{3′-(methylsulfonyl)-4-[2-methyl-4-(trifluoromethyl)-1H-imidazol-1-yl]biphenyl-3-yl}-5-{4-[(trifluoromethyl)oxy]phenyl}-1,3-oxazole] yielded an EC50 of 77 nM and an Emax of 89%.
Cc1nc(-c2cc(-c3ccc(CO)c(S(C)(=O)=O)c3)ccc2-n2cc(C(F)(F)F)nc2C)c(-c2ccc(F)c(F)c2)o1 [Example 512, (3′-(5-(3,4-difluorophenyl)-2-methyloxazol-4-yl)-4′-(2-methyl-4-(trifluoromethyl)-1H-imidazol-1-yl)-3-(methylsulfonyl)biphenyl-4-yl)methanol] showed an EC50 of 136 nM and an Emax of 71%.
Molecule Cc1nc(-c2cc(-c3cc(F)c(CO)c(S(C)(=O)=O)c3)ccc2-n2cc(C(F)(F)F)nc2C)c(-c2ccc(C(F)(F)F)nc2Cl)o1 [Example 477, (3′-(5-(2-chloro-6-(trifluoromethyl)pyridin-3-yl)-2-methyloxazol-4-yl)-3-fluoro-4′-(2-methyl-4-(trifluoromethyl)-1H-imidazol-1-yl)-5-(methylsulfonyl)biphenyl-4-yl)methanol] has an EC50 of 271 nM and an Emax of 66%.
With Cc1nc(-c2cc(-c3ccc(CO)c(S(C)(=O)=O)c3)ccc2-n2cc(C(F)(F)F)nc2C)c(-c2ccc(OC(F)F)cc2)o1 [Example 497, (3′-(5-(4-(difluoromethoxy)phenyl)-2-methyloxazol-4-yl)-4′-(2-methyl-4-(trifluoromethyl)-1H-imidazol-1-yl)-3-(methylsulfonyl)biphenyl-4-yl)methanol] the EC50 was 88 nM and the Emax was 124%.
In the case of Cc1nc(-c2cc(-c3cccc(S(C)(=O)=O)c3)ccc2-n2cc(C(F)(F)F)nc2C)c(-c2ccc(Cl)nc2Cl)o1 [Example 566, 5-(2,6-dichloropyridin-3-yl)-2-methyl-4-(4-(2-methyl-4-(trifluoromethyl)-1H-imidazol-1-yl)-3′-(methylsulfonyl)-[1,1′-biphenyl]-3-yl)oxazole], the EC50 is reported as 227 nM and the Emax is reported as 94%.
For Cc1nc(C(F)(F)F)cn1-c1c(F)cc(-c2cc(F)c(CO)c(S(C)(=O)=O)c2)cc1-n1nncc1-c1ccc(OC(F)(F)F)cc1 [Example 202, [3,3′-difluoro-5-(methylsulfonyl)-4′-[2-methyl-4-(trifluoromethyl)-1H-imidazol-1-yl]-5′-(5-{4-[(trifluoromethyl)oxy]phenyl)-1H-1,2,3-triazol-1-yl)biphenyl-4-yl]methanol], the EC50 was 106 nM and the Emax was 77%.
Molecule Cc1nc(C(=O)NC(C)(C)C)cn1-c1ccc(-c2cccc(S(C)(=O)=O)c2)cc1-n1nncc1-c1ccc(OC(F)(F)F)cc1 [Example 152, N-(1,1-dimethylethyl)-2-methyl-1-[3′-(methylsulfonyl)-3-(5-{4-[(trifluoromethyl)oxy]phenyl}-1H-1,2,3-triazol-1-yl)biphenyl-4-yl]-1H-imidazole-4-carboxamide] has an EC50 of 1230 nM and an Emax of 49%.
Cc1nc(C(F)(F)F)cn1-c1ccc(-c2cc(Cl)c(CO)c(S(C)(=O)=O)c2)cc1-n1nncc1Cc1cccc(Cl)c1 [Example 117, (3-chloro-3′-{5-[(3-chlorophenyl)methyl]-1H-1,2,3-triazol-1-yl}-5-(methylsulfonyl)-4′-[2-methyl-4-(trifluoromethyl)-1H-imidazol-1-yl]biphenyl-4-yl)methanol] showed an EC50 of 1020 nM and an Emax of 76%.
For Cc1nc(C(F)(F)F)cn1-c1ccc(-c2cc(F)c(CO)c(S(C)(=O)=O)c2)cc1-c1ocnc1-c1ccc(Cl)cc1 [Example 355, {3′-[4-(4-chlorophenyl)-1,3-oxazol-5-yl]-3-fluoro-5-(methylsulfonyl)-4′-[2-methyl-4-(trifluoromethyl)-1H-imidazol-1-yl]biphenyl-4-yl}methanol], the EC50 was 105 nM and the Emax was 98%.
Cc1nc(-c2cc(-c3cccc(S(C)(=O)=O)c3)ccc2-n2cc(C(F)(F)F)nc2C)c(-c2ccc(OCC3CC3)c(F)c2)o1 [Example 404, 5-(4-(cyclopropylmethoxy)-3-fluorophenyl)-2-methyl-4-(4-(2-methyl-4-(trifluoromethyl)-1H-imidazol-1-yl)-3′-(methylsulfonyl)biphenyl-3-yl)oxazole] showed an EC50 of 159 nM and an Emax of 69%.
Cc1nc(-c2ccccc2C(F)(F)F)c(-c2cc(-c3cc(F)c(CO)c(S(C)(=O)=O)c3)ccc2-n2cc(C(F)(F)F)nc2C)o1 [Example 630, (3-fluoro-3′-(2-methyl-4-(2-(trifluoromethyl)phenyl)oxazol-5-yl)-4′-(2-methyl-4-(triftuoromethyl)-1H-imidazol-1-yl)-5-(methylsulfonyl)-[1,1′-biphenyl]-4-yl)methanol] was tested, and the EC50 was 103 nM and the Emax was 30%.
Cc1nc(C(N)=O)cn1-c1ccc(-c2cccc(S(C)(=O)=O)c2)cc1-c1nc(C2CC2)oc1-c1ccc2c(c1)OC(F)(F)O2 [Example 489, 1-(3-(2-cyclopropyl-5-(2,2-difluorobenzo[d][1,3]dioxol-5-yl)oxazol-4-yl)-3′-(methylsulfonyl)biphenyl-4-yl)-2-methyl-1H-imidazole-4-carboxamide] gave an EC50 of 1080 nM and an Emax of 35%.
In the case of Cc1nc(-c2cc(-c3cccc(C(=O)N(C)C)c3)ccc2-n2cc(C(F)(F)F)nc2C)c(-c2ccc3c(c2)OC(F)(F)O3)o1 [Example 418, 3′-(5-(2,2-difluorobenzo[d][1,3]dioxol-5-yl)-2-methyloxazol-4-yl)-N,N-dimethyl-4′-(2-methyl-4-(trifluoromethyl)-1H-imidazol-1-yl)biphenyl-3-carboxamide], the EC50 is reported as 740 nM and the Emax is reported as 73%.
In the case of Cc1nc(-c2cc(-c3cccc(S(C)(=O)=O)c3)ccc2-n2cc(C(F)(F)F)nc2C)c(-c2ccc(Cl)nc2)o1 [Example 550, 5-(6-chloropyridin-3-yl)-2-methyl-4-(4-(2-methyl-4-(trifluoromethyl)-1H-imidazol-1-yl)-3′-(methylsulfonyl)-[1,1′-biphenyl]-3-yl)oxazole], the EC50 is reported as 625 nM and the Emax is reported as 85%.
Work on Cc1nc(-c2cc(-c3cc(F)c(CO)c(S(C)(=O)=O)c3)ccc2-n2cc(C(F)(F)F)nc2C)c(-c2ccc3c(c2)C(O)C(F)(F)O3)o1 (stereo not shown) [Example 487, 2,2-difluoro-5-(4-(3′-fluoro-4′-(hydroxymethyl)-4-(2-methyl-4-(trifluoromethyl)-1H-imidazol-1-yl)-5′-(methylsulfonyl)biphenyl-3-yl)-2-methyloxazol-5-yl)-2,3-dihydrobenzofuran-3-ol] yielded an EC50 of 815 nM and an Emax of 59%.
Cc1nc(C(F)(F)F)cn1-c1ccc(-c2cc(F)c(CO)c(S(C)(=O)=O)c2)cc1-c1nc(C2CC2)oc1-c1ccc2c(c1)OC(F)(F)O2 [Example 483] gave an EC50 of 40 nM and an Emax of 66%.
